Results on 1 compound are retold here after article PMC10144994, “Bioactive Metabolite from Endophytic Aspergillus versicolor SB5 with Anti-Acetylcholinesterase, Anti-Inflammatory and Antioxidant Activities: In Vitro and In Silico Studies” (Microorganisms, 2023).

In the assay the target is T1, LOX-1 (lipoxygenase from Glycine max, type I-B) (Glycine max, UniProt P08170).
T1 construct: gene LOX1.1
T1 sequence (P08170 1-839): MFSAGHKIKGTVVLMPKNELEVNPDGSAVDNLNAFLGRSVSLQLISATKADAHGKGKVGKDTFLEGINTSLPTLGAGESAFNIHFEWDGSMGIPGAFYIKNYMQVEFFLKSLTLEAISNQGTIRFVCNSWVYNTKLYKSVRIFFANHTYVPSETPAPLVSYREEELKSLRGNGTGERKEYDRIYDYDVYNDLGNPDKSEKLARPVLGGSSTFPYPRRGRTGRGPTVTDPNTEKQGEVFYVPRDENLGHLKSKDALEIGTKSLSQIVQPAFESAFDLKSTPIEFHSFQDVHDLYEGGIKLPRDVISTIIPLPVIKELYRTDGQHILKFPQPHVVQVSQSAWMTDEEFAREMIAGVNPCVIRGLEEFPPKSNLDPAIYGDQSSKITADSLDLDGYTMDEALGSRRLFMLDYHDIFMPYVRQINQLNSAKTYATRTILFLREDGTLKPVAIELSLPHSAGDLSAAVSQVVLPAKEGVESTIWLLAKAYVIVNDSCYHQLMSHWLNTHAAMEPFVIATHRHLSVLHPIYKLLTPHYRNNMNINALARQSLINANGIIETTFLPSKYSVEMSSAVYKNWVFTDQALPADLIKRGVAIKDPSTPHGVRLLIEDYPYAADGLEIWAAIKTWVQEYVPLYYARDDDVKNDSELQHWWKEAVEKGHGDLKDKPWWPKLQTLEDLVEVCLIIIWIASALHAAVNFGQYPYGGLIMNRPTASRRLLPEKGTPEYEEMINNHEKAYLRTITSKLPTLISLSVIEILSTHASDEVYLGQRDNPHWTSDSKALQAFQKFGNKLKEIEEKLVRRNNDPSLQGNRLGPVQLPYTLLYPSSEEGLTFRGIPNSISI
In words: soybean LOX, linoleic acid substrate, absorbance at […] nm. The assay is classed as biochemical.

Structures are written as SMILES.

The compound `COc1cc(O)c2c(c1)C(=O)c1cc(C)cc(O)c1C2=O` [C1, 1,8-dihydroxy-3-methoxy-6-methylanthracene-9,10-dione] gave a 50% inhibitory concentration (IC50) of 61.7 µM.
